{"source": "patent US8951529B2", "about": "“Methods of using small compounds to enhance myeloid derived suppressor cell function for treating autoimmune diseases” (Icahn School of Medicine at Mount Sinai, priority 2009, dated 2015)", "key": {"normal CD115+ monocytes": {"test_system": "normal CD115+ monocytes", "assay": "Normal monocyte assay: Treg induction in co-culture with normal monocytes", "format": "cell-based, mouse", "settings": "monocytes:CD4 OTII TCR splenocytes 1:4, five days, FIG. 2", "text": "CD115+ MDSCs and normal CD115+ monocytes were isolated from the bone marrows of tumor-bearing and naive Balb/c mice, respectively, and were co-cultured with CD4 OTII TCR transgenic splenocytes at a ratio of 1:4 in the absence or presence of GA, SP600125, or both.\nTo verify whether the enhancement of suppressive activities (suppression of T-cell proliferation and Treg cell induction) by GA and SP600125 is specific to MDSCs, the Treg cell inducing activity of normal CD115+ monocytes from naive mice was analyzed in the presence of GA and SP600125."}, "[1]": {"test_system": "CD4+ HA-TCR transgenic splenocytes co-cultured with MDSCs", "assay": "IL-17A production by HA-stimulated splenocytes co-cultured with MDSCs (ELISA)", "format": "cell-based, mouse", "settings": "splenocytes:MDSCs 3:1, HA peptide, five days, FIG. 3B", "method": "Because IL-23 (p40/p19) is essential for the Th17 response, the effects of MDSCs, in the presence of GA, SP600125, or both, on IL-17A expression by CD4+ HA-TCR transgenic splenocytes stimulated with HA peptides was determined. Splenocytes from CD4+ HA-TCR transgenic mice were co-cultured with irradiated MDSCs at the ratio of 3:1 in the presence of HA peptide and SP600125, GA, or a combination of both. Five days later, the culture supernatants were collected for the determination of IL-17A concentration by ELISA."}, "Gr-1+CD115+ MDSCs": {"test_system": "Gr-1+CD115+ MDSCs", "assay": "Prolongation of Treg cell inducing activity of pre-treated MDSCs", "format": "cell-based, mouse", "settings": "96 hours pre-treatment, then 5 days co-culture, FIG. 4B", "method": "It was further investigated whether the delay of MDSC differentiation correlated with the prolongation of the Treg cell inducing activity mediated by MDSCs. Purified Gr-1+CD115+ MDSCs from tumor-bearing mice were left non-treated or treated with SP600125, GA, or a combination of both for 0, 48, and 96 hours followed by co-culture with CD4 HA TCR transgenic for an additional 5 days. […] The percentages of Treg cell subpopulations were determined by flow cytometry.\nIn the absence of treatment with GA or SP00125, the Treg cell inducing activity of MDSCs gradually waned over the period of 4-day culture (FIG. 4B)."}, "MLN T cells": {"test_system": "MLN T cells", "assay": "MLN cell proliferation assay from IBD mice", "format": "in vivo, mouse", "settings": "+PHA, 72 hours, [3H]-thymidine, day 11, DSS-treated mice, FIG. 7", "method": "On day 11 after IBD induction, mice were terminated, and MLN cells were isolated and cultured in the presence or absence of PHA. [3H]-thymidine was pulsed during the last 8 hours of 72-hour culture for the measurement of T cell proliferation.\nTo assess the proliferative capability of T cells from treated mice, on day 11 following IBD induction, splenocytes and […] lymph node (MLN) cells from treated mice were stimulated with (+PHA) or without PHA (˜) for 72 hours. [3H]-thymidine was pulsed during the last 8 hours of 72-hour culture. […] The percentage of Treg cells is defined as the percent cells that are stained positive for CD4, CD25, and intracellular Foxp3."}, "[2]": {"test_system": "TLR 2, 3, and 4 expression in MDSCs", "settings": "microarray analysis", "text": "Five days later, cells were harvested and stained with anti-CD4-FITC+anti-CD25-APC+anti-Foxp3-PE or isotype controls followed by flow cytometry."}, "CD115+ MDSCs": {"test_system": "CD115+ MDSCs", "settings": "FIG. 9B", "method": "IL-10 and IFN-γ levels in the supernatant were measured by ELISA."}, "IRF-3": {"test_system": "IRF-3", "settings": "MDSCs stimulated with LPS for 2 hours, FIG. 9C", "text": "Actin was used as a loading control. Primary antibodies were anti-NFκB, anti-phospho-IRF3 (pIRF3), and anti-β-actin (Cell Signaling Technologies, Danvers, Mass.)."}, "[3]": {"test_system": "MDSCs derived from TRIF KO mice", "settings": "OVA peptide, CD4 OVA TCR splenocytes, 5 days, FIG. 9D", "method": "TRIF is upstream of IRF-3. MDSCs derived from wild type or TRIF KO mice were cultured in the presence of OVA peptide and CD4 OVA TCR transgenic splenocytes for 5 days. Cells were stained with primary antibody specific for Foxp3, CD4 and CD25 and analyzed by flow cytometry."}}}
{"substance": "L-glutamic acid polymer with L-alanine, L-lysine and L-tyrosine, acetate (salt) [GA]", "values": [{"measurement": "percentage of CD4+CD25+Foxp3+ Treg cells in the co-culture with normal monocytes", "setting": "normal CD115+ monocytes", "value": "slightly increased"}, {"measurement": "IL-17A production", "setting": "[1]", "value": "decreased"}, {"measurement": "Treg cell inducing activity of treated MDSCs on day 4", "setting": "Gr-1+CD115+ MDSCs", "value": "still maintained a significant Treg cell inducing activity"}, {"measurement": "T-cell proliferation of MLN cells", "setting": "MLN T cells", "value": "lower level"}, {"measurement": "levels of TLR 2, 3, and 4 expression in MDSCs", "setting": "[2]", "value": "significant reduction"}, {"measurement": "IFN-γ production induced by LPS in MDSCs", "setting": "CD115+ MDSCs; 100 ng/mL LPS, 30 hours, ELISA", "value": "significantly reduced"}, {"measurement": "IL-10 production by MDSCs", "setting": "CD115+ MDSCs; with LPS", "value": "favors IL-10 production"}, {"measurement": "IRF-3 activation induced by LPS", "setting": "IRF-3", "value": "inhibition"}, {"measurement": "MDSC-mediated Treg cell induction in the absence of TRIF", "setting": "[3]", "value": "cannot enhance"}]}
